Calls of active or inactive are those of the source. The calls are words filed in the database; no cut-off is given here.

By IC50 is commonly meant the concentration needed to halve the response being measured. The low end stands for higher potency, the high end for lower potency.

In assay [1] the target is T1, Coagulation factor X (Homo sapiens, UniProt P00742). The experiment in a line: Inhibition of factor 10a (unknown origin) using S-2765 as substrate assessed as compound potency preincubated with AT-3 followed by factor 10a addition for 60 secs and subsequent addition of substrate for 60 secs measured after 4 mins.
In assay [2] the target is T1, Coagulation factor X. The experiment in a line: Inhibition of factor 10a (unknown origin) using S-2765 as substrate preincubated with AT-3 followed by factor 10a addition for 60 secs and subsequent addition of substrate for 60 secs measured after 4 mins.
Assay [3] has as its system Rattus norvegicus. The experiment in a line: Antithrombotic activity in Wistar rat venous thrombosis model assessed as reduction in weight of vein thrombus at 300 IU/kg, sc administered 1 hr prior to induction of thrombosis measured after 30 mins. It counts as functional, organism-based.
Assay [4] deals with Rattus norvegicus. The experiment in a line: Antithrombotic activity in Wistar rat venous thrombosis model assessed as reduction in weight of vein thrombus at 100 to 500 IU/kg, sc administered 1 hr prior to induction of thrombosis measured after 30 mins. It is filed as functional, organism-based.

T1 sequence (P00742 41-179 limits assumed): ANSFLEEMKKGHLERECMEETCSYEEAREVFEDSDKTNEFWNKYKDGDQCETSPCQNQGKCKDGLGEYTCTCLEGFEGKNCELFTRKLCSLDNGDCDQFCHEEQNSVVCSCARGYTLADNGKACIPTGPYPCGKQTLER
T1 sequence (P00742 235-488 limits assumed): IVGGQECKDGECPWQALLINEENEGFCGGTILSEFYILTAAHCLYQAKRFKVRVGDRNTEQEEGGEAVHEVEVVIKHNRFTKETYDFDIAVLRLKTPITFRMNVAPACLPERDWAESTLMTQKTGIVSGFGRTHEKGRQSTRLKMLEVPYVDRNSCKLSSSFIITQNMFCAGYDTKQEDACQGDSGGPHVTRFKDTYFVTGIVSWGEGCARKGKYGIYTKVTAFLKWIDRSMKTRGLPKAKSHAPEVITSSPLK

On to `CO[C@H]1O[C@H](COS(=O)(=O)O)[C@@H](O[C@@H]2O[C@H]3C(=O)N[C@H]4[C@H](O[C@@H]3[C@H](O)[C@H]2OS(=O)(=O)O)O[C@H](COS(=O)(=O)O)[C@@H](O[C@@H]2O[C@H](C(=O)O)[C@@H](O[C@H]3O[C@H](COS(=O)(=O)O)[C@@H](O)[C@H](O)[C@H]3NS(=O)(=O)O)[C@H](O)[C@H]2O)[C@@H]4OS(=O)(=O)O)[C@H](O)[C@H]1NS(=O)(=O)O`, for which, on Coagulation factor X [1], the INH turned out to be 83.5 IU/mg. Besides, on Coagulation factor X [2], the IC50 is 19.9 nM.

In the case of `CC.COC1O[C@H](COS(=O)(=O)O)[C@@H](O[C@@H]2O[C@@H](C(=O)O)[C@@H](O[C@@H]3O[C@H](COS(=O)(=O)O)[C@@H](O[C@@H]4O[C@H](C(=O)O)[C@@H](O[C@H]5O[C@H](COS(=O)(=O)O)[C@@H](O)[C@H](O)[C@H]5NS(=O)(=O)O)[C@H](O)[C@H]4O)[C@H](OS(=O)(=O)O)[C@H]3NS(=O)(=O)O)[C@H](O)[C@H]2OS(=O)(=O)O)[C@H](O)[C@H]1NS(=O)(=O)O` (single isomer, unassigned), at Coagulation factor X [1], the INH came out at 719 IU/mg. This molecule also showed an IC50 against Coagulation factor X [2] of 3 nM.

On to `CO[C@H]1O[C@H](COS(=O)(=O)O)[C@@H](O[C@@H]2O[C@@H](C(=O)O)[C@@H](O[C@@H]3O[C@H](COS(=O)(=O)O)[C@@H](O[C@@H]4O[C@H](C(=O)O)[C@@H](O[C@H]5O[C@H](COS(=O)(=O)O)[C@@H](O)[C@H](O)[C@H]5NS(=O)(=O)O)[C@H](O)[C@H]4O)[C@H](OS(=O)(=O)O)[C@H]3NS(=O)(=O)O)[C@H](OS(=O)(=O)O)[C@H]2OS(=O)(=O)O)[C@H](O)[C@H]1NS(=O)(=O)O`, for which the INH at Coagulation factor X [1] turned out to be 185 IU/mg. The IC50 against Coagulation factor X [2] is 9.25 nM.

On to `CO[C@H]1O[C@H](COS(=O)(=O)O)[C@@H](O[C@@H]2O[C@@H](C(=O)O)[C@@H](O[C@@H]3O[C@H](COS(=O)(=O)O)[C@@H](O[C@@H]4O[C@H](C(=O)O)[C@@H](O[C@H]5O[C@H](COS(=O)(=O)O)[C@@H](O)[C@H](O)[C@H]5NS(=O)(=O)O)[C@H](O)[C@H]4O)[C@H](OS(=O)(=O)O)[C@H]3NS(=O)(=O)O)[C@H](O)[C@H]2OS(=O)(=O)O)[C@H](O)[C@H]1NS(=O)(=O)O`, for which, on Coagulation factor X [1], the INH came to 1170 IU/mg. In addition, 0.978 nM corresponded to half-maximal inhibition on Coagulation factor X [2] (IC50). Moreover, the outcome in the assay on Rattus norvegicus [3] was Active.

For `CO[C@H]1O[C@H](COS(=O)(=O)O)[C@@H](O[C@@H]2O[C@@H](C(=O)O)[C@@H](O[C@@H]3O[C@H](COS(=O)(=O)O)[C@@H](O[C@@H]4O[C@H](C(=O)O)[C@@H](O[C@H]5O[C@H](COS(=O)(=O)O)[C@@H](O)[C@H](O)[C@H]5NC=O)[C@H](O)[C@H]4O)[C@H](OS(=O)(=O)O)[C@H]3NS(=O)(=O)O)[C@H](O)[C@H]2OS(=O)(=O)O)[C@H](O)[C@H]1NS(=O)(=O)O`, the INH on Coagulation factor X [1] came to 1260 IU/mg. On Coagulation factor X [2], this molecule gave an IC50 of 1.14 nM.

With `CO[C@H]1O[C@H](COS(=O)(=O)O)[C@@H](O[C@@H]2O[C@@H](C(=O)O)[C@@H](O[C@@H]3O[C@H](COS(=O)(=O)O)[C@@H](O[C@@H]4O[C@H](C(=O)O)[C@@H](O[C@H]5O[C@H](COS(=O)(=O)O)[C@@H](O)[C@H](O)[C@H]5NS(=O)(=O)O)[C@H](O)[C@H]4O)[C@H](OS(=O)(=O)O)[C@H]3N)[C@H](O)[C@H]2OS(=O)(=O)O)[C@H](O)[C@H]1NS(=O)(=O)O`, the INH at Coagulation factor X [1] turned out to be 2.15 IU/mg. For the same molecule, on Coagulation factor X [2], inhibition was half-maximal at 494 nM (IC50).

In the case of `CO[C@H]1O[C@H](COS(=O)(=O)O)[C@@H](O[C@@H]2O[C@@H](C(=O)O)[C@@H](O[C@@H]3O[C@H](COS(=O)(=O)O)[C@@H](O[C@@H]4O[C@H](C(=O)O)[C@@H](O[C@H]5O[C@H](COS(=O)(=O)O)[C@@H](O)[C@H](O)[C@H]5NS(=O)(=O)O)[C@H](O)[C@H]4O)[C@H](OS(=O)(=O)O)[C@H]3NS(=O)(=O)O)[C@H](O)[C@H]2OS(=O)(=O)O)[C@H](O)[C@H]1N(C)S(=O)(=O)O`, in the assay with Rattus norvegicus [4], the outcome was Active. For the same molecule, the INH at Coagulation factor X [1] worked out at 1140 IU/mg. In addition, on Coagulation factor X [2], the IC50 is 1.65 nM.

`CC.O=C(O)[C@H]1O[C@@H](O[C@H]2[C@H](OS(=O)(=O)O)[C@@H](NS(=O)(=O)O)[C@H](O[C@H]3[C@H](O)[C@@H](OS(=O)(=O)O)[C@H](O[C@@H]4[C@H](O)[C@@H](CO)O[C@@H]4CS(=O)(=O)O)O[C@H]3C(=O)O)O[C@@H]2COS(=O)(=O)O)[C@H](O)[C@@H](O)[C@@H]1O[C@H]1O[C@H](COS(=O)(=O)O)[C@@H](O)[C@H](O)[C@H]1NS(=O)(=O)O` had an IC50 at Coagulation factor X [2] of 20.7 nM.

On to `CO[C@H]1O[C@H](COS(=O)(=O)O)[C@@H](O[C@@H]2O[C@@H](C(=O)O)[C@@H](O[C@@H]3O[C@H](COS(=O)(=O)O)[C@@H](O[C@@H]4O[C@H](C(=O)O)[C@@H](O[C@H]5O[C@H](COS(=O)(=O)O)[C@@H](O)[C@H](O)[C@H]5N)[C@H](O)[C@H]4O)[C@H](OS(=O)(=O)O)[C@H]3N)[C@H](O)[C@H]2OS(=O)(=O)O)[C@H](O)[C@H]1NS(=O)(=O)O`, for which the INH on Coagulation factor X [1] came out at 1.32 IU/mg. Besides, the IC50 against Coagulation factor X [2] is 967 nM.

Source of the values: ChEMBL document CHEMBL4000206, “An efficient anticoagulant candidate: Characterization, synthesis and in vivo study of a fondaparinux analogue Rrt1.17” (Eur J Med Chem, 2017).
